Entries after “also recorded” stand apart in the source; their conditions may differ. Where two headings read alike, the source gives them in different places.
What was measured:
[1] = tested on: neuronally differentiated PC-12 cells; assay: Protection from rotenone induced toxicity in neuronally differentiated PC-12 cells; assay type: cell-based
Method: Rotenone is a complex I poison and is widely used in cell culture and animal models of PD. (20, 31, 32) To determine if PIP-1 protects cells from rotenone insult, PC-12 cells are neuronally differentiated (with neuronal growth factor β for 10 days) and then treated with 10 μM rotenone and a range of PIP-1 concentrations. After 72 hours, cell death is assessed using propidium iodide staining as measured by flow cytometry. […] To determine the features on PIP-1 that are important for PARG inhibition and cell protection, three derivatives are constructed that lacked key functionality (see FIG. 19 compounds labeled 3, 4 and 5).
Cell culture conditions: HL-60 and SK-N-SH cells are grown in RPMI 1640 media supplemented with 10% FBS and PC-12 cells are grown in RPMI 1640 media supplemented with 10% HS and 5% FBS. All cell lines are incubated at 37° C. in a 5% CO2, 95% air atmosphere. HL-60 cells are split every two to three days as needed and SK-N-SH cells are split when they reach approximately 90% confluency at a 1:6 ratio. SK-N-SH cells are differentiated by adding media containing 10 μM retinoic acid (in DMSO). Media is replaced every other day and cells are differentiated for a total of 12 days. PC-12 cells are differentiated by adding media containing 25 ng/mL Neuronal Growth Factro β. Media is replaced every other day and cells are differentiated for a total of 10 days. Differentiation is observed by microscopy.
Protection of Rotenone and MPP^+ induced toxicity in PC-12 and SK-N-SH cells: SK-N-SH and PC-12 cells are neuronally differentiated as described above. 10 μM rotenone, 10 μM MPP^+ and various concentrations of PIP-1 or its derivatives are added to the cells and incubated for 72 h. The cells are then washed in PBS and the viability is determined by adding propidium iodide to 1 μg/mL and measuring the fluorescent intensity of each cell by flow cytometry.

[2] = tested on: NAD^+ depletion in HL-60 cell lysate; assay: Whole cell assay screen: NAD+ depletion in H2O2-activated HL-60 cell lysate; assay type: cell-based
Method: To identify a non-toxic, non-DNA intercalating, cell permeable small molecule inhibitor of PARG, a high-throughput screen is devised. Given the severe challenges in isolating enough of the PAR substrate for an in vitro screen directly for PARG inhibition, we develop a primary screen that utilizes cell lysates and, in particular, mammalian cell lysates. In this assay, HL-60 cells are treated with H2O2 to damage their DNA (which activates PARP-1) and then lyse the cells. In individual wells of a 384-well plate, this cell lysate is incubated with 22,000 different small molecules from an in-house compound collection; these compounds are either purchased (from ChemBridge Corp.) or collected from various sources at the University of Illinois. (28) NAD^+ levels are measured using a fluorescent method based on the chemical conversion of NAD^+ to a fluorescent product (29, 30) (FIG. 14A). The amount of NAD^+ consumed in each well is monitored, and any compounds that prevent NAD^+ consumption are classified “hits” in this primary screen.
Library screen: 12.5 μL of Lysing PARP buffer (50 mM Tris, 10 mM MgCl2, pH 8.0, 1% Triton X-100) containing 100 μM NAD^+ is added to each well of a 384-well plate. Library compounds at 10 mM in DMSO are transferred using a 384-well pin transfer device that delivers 0.1 μL. HL-60 cells are spun down at 200 g for 5 min. and resuspended in Lysing PARP buffer to a concentration of 8×10^6 cells/mL. 10 μL of a 30% H2O2 solution is added per mL of cells. 12.5 μL of the activated cell lysate is added to the plates. The plates are incubated for 60 min. at 37° C. The concentration of NAD^+ is then determined using a fluorescent assay^1. 10 μL of a 2 M KOH solution and 10 μL of a 20% acetophenone solution (in ethanol) is added to each well. The plate is then incubated at 4° C. for 10 min. 45 μL of a 88% formic acid solution was added to each well. The plate was then incubated for 5 min. in a 110° C. oven. Once the plate cools, the fluorescent intensity of each well is determined on a Criterion Analyst AD (Molecular Devices) with an excitation of 360 nm and an emission of 445 nm.

PARG = PARG (Bos taurus, UniProt O02776); assay: Inhibition of PARG activity in vitro (quantitation of free ADP-ribose with benzamidine, fluorescence); assay type: biochemical; parameters: purchased Biomol
Method: PARG assay: Production and purification of PAR. PARP-1 (20 units) is added to 900 μL of PARP assay buffer containing 1 mM NAD^+ and 22.5 μg activated DNA. This reaction was run at 37° C. for 30 min and stopped by the addition of 300 μL of cold 100% trichloroacetic acid. The proteins thus precipitated are collected by centrifugation at 18,000 g for 30 min at 4° C. After removal of the supernatant, 1 mL of 1 M NaOH and 100 mM EDTA are added to the pellet and incubated for 2 h at 37° C. to cleave the PAR from the PARP protein acceptor. Then 9 mL of PAR buffer A (250 mM ammonium acetate, 6 M guanidinium HCl, 10 mM EDTA, pH 9.0) is added to the PAR and applied to a PROSEP-PB (Millipore) phenyl boronate column that is pre-equilibrated with PAR buffer A. The flowthrough is then reapplied to the column to ensure that all PAR is bound. The column is then washed with 25 mL of PAR buffer A, followed by 10 mL of PAR buffer B (1 M ammonium acetate and 1 mM EDTA, pH 9.0). The bound PAR is eluted with 4 mL of water collected in 1-mL fractions. Fractions containing PAR are pooled and concentrated. The concentration, measured as monomer, is determined by measuring the absorbance at 258 nm. PAR has an extinction coefficient of 13,500 cm^−1 at 258 nm.
Inhibition of PARG Activity: To determine the PARG IC50 values of the compounds, 39 μL of a 25.6 μM solution of PAR in PARG assay (50 mM KCl, 50 mM KH2PO4, pH 7.2) buffer and 1 μL of the compounds at varying concentrations (in PARG assay buffer) are added into the wells of a 384-well plate. The reaction is initiated by the addition of 10 μL of PARG (Biomol) at a concentration of 1 ng/ml (in PARG assay buffer), bringing the final concentration to […] and 20 μM PAR with varying concentrations of compounds in a total volume of 50 μL. The plate is incubated for 20 min at room temperature. The amount of free ADP-ribose hemiacetals is determined by the addition of 5 μL of an aqueous 8.5M KOH solution and 5 μL of an aqueous 850 μM benzamidine solution to each well. The plate is then incubated for 10 min in an oven set at 110° C. The plate is allowed to cool and then read on a Criterion Analyst AD with an excitation of 360 nm and an emission of 445 nm.

PARG, sequence (O02776 whole entry): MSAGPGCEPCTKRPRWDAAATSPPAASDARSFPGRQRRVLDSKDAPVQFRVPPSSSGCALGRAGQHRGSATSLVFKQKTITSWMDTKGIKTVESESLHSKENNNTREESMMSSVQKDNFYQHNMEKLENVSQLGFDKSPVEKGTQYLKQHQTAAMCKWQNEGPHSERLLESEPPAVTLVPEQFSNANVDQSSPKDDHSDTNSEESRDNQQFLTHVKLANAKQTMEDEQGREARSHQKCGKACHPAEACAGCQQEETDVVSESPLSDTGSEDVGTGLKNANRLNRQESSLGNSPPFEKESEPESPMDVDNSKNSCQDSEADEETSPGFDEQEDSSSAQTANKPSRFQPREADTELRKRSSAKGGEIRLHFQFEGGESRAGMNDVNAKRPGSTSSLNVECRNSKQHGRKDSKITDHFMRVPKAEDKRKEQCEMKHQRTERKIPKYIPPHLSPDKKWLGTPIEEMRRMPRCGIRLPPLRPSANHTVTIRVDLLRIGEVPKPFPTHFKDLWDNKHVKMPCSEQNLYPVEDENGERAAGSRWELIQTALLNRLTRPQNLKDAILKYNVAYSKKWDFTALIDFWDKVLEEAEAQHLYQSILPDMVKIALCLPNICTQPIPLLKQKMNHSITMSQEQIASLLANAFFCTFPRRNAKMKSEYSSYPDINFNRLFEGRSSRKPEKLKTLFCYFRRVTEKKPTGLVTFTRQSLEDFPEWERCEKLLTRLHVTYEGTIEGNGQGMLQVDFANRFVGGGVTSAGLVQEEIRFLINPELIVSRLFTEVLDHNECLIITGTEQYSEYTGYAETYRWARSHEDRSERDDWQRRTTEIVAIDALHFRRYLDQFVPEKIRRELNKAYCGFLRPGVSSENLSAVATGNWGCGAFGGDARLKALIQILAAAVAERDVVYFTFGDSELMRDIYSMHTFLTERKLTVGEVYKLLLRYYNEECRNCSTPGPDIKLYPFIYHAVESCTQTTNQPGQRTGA

| SMILES | Protection of rotenone-treated neuronally differentiated PC-12 cells (in words) [1] | EC50 ([1]; Rattus norvegicus, differentiated PC-12 cells, 10 μM rotenone, 72 h, read-out: EC50 (IC50) for protection from rotenone induced toxicity) [nM] | Inhibition of NAD+ depletion in the whole cell assay [2] | IC50 (PARG) [nM] | PARG inhibition in vitro (in words) (PARG) | Protection of rotenone-treated neuronally differentiated PC-12 cells (in words) ([1]; listed as analogue 5) | PARG inhibition in vitro (in words) (PARG; listed as analogue 5) |
| --- | --- | --- | --- | --- | --- | --- | --- |
| CN(C)c1cnn(-c2ccccc2)c(=O)c1N [PIP-1, 4-Amino-5-dimethylamino-2-phenyl-2H-pyridazin-3-one] | protect | 5360 | inhibit NAD^+ depletion | 490 | inhibits PARG in vitro in a dose-dependent manner; also recorded: inhibits PARG in vitro in a dose dependent manner; also recorded: inhibit PARG activity in vitro |  |  |
| Nc1c(Cl)cnn(-c2ccccc2)c1=O [compound 5, 4-Amino-5-chloro-2-phenyl-2H-pyridazin-3-one] | inactive |  | do not inhibit NAD^+ depletion |  | inactive; also recorded: does not inhibit PARG | do not protect | do not inhibit NAD^+ depletion or PARG activity |

— US20090012088A1 (priority 2005, published 2009)
